Experimental data taken from patent US5712300A, “Hydroxamic acid derivatives useful for the treatment of diseases related to connective tissue degradation” (priority 1997, dated 1998).

What was measured:
Format in all cases: biochemical
Stromelysin = Stromelysin (Homo sapiens, UniProt P08254); experiment: MMP inhibition by particle concentration fluorescence technique (stromelysin); details: pH 7.5; 15 min enzyme preincubation; substrate 1-3 h at room temperature; read-out: MMP Inhibition Constants, Stromelysin Ki
Chain of Stromelysin (P08254 100-477): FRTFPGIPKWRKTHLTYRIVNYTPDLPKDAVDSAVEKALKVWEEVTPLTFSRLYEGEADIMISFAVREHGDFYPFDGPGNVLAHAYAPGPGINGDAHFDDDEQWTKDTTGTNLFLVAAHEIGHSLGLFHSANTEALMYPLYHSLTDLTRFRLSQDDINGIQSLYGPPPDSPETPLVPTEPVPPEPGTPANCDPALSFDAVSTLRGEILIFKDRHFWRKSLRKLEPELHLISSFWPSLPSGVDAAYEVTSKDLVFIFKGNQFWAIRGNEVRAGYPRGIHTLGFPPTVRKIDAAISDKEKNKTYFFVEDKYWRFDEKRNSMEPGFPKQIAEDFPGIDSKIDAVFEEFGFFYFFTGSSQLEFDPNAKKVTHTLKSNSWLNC
From the text: An inhibitor binds to MMP enzymes prevents the degradation of a substrate of stromelysin, gelatinase, or collagenase. The substrate is attached with a fluorescein and a biotin. The intact substrate then binds to an avidin-coated particle via the biotin moiety. Once the particle is washed and dried, a fluorescent signal is generated since the fluorescent group is attached to the particle. Without an inhibitor present, the substrate is degraded by MMP enzymes and the fluorescein group is removed, therefore, no fluorescent signal can be detected. […] Serial two-fold dilutions of each compound are prepared. A concentrated, activated enzyme solution is transferred into each plate of the testing compounds, and the mixture is incubated at room temperature for 15 minutes.

Collagenase = target: T1, Collagenase (Homo sapiens, UniProt P03956); experiment: MMP inhibition by particle concentration fluorescence technique (collagenase); details: pH 7.5; 15 min enzyme preincubation; substrate 1-3 h at room temperature; read-out: MMP Inhibition Constants, Collagenase Ki
T1 sequence (P03956 100-469): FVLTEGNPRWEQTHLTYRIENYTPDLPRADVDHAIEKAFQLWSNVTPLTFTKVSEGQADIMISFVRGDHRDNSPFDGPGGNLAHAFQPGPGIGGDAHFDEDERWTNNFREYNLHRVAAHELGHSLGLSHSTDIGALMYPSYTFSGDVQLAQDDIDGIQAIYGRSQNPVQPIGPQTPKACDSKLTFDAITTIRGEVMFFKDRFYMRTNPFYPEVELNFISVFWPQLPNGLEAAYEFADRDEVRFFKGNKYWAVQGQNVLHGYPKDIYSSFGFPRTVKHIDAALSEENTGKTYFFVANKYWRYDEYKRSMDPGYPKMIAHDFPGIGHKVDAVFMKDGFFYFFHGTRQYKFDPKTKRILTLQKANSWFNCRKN
Experimental: (§1) Inhibitory activity is evaluated in one or more of the MMP enzymes (stromelysin, gelatinase, and collagenase) in vitro using a particle concentration fluorescence techniques. An inhibitor binds to MMP enzymes prevents the degradation of a substrate of stromelysin, gelatinase, or collagenase. The substrate is attached with a fluorescein and a biotin. The intact substrate then binds to an avidin-coated particle via the biotin moiety. Once the particle is washed and dried, a fluorescent signal is generated since the fluorescent group is attached to the particle. Without an inhibitor present, the substrate is degraded by MMP enzymes and the fluorescein group is removed, therefore, no fluorescent signal can be detected. Testing compounds are dissolved in DMSO to the desired concentration, then the solutions are diluted to 1:5 with MMP buffer (50 mM Tris-HCl, pH 7.5; 150 mM NaCl; 0.02% NAN3). Serial two-fold dilutions of each compound are prepared. A concentrated, activated enzyme solution is transferred into each plate of the testing compounds, and the mixture is incubated at room temperature for 15 minutes. Thawed MMP substrate is then added into all plates, and the plates are incubate in the dark for 1-3 hours at room temperature. At this point, the substrate mixture is reacted with 0.1% avidin-coated polystyrene particles.

Gelatinase = experiment: MMP inhibition by particle concentration fluorescence technique (gelatinase); details: pH 7.5; 15 min enzyme preincubation; substrate 1-3 h at room temperature; read-out: MMP Inhibition Constants, Gelatinase Ki
Experimental: as §1

Row | Compound | Ki (Stromelysin) | Ki (Collagenase) | Ki (Gelatinase)
1 | CC(C)C[C@@]1([C@@H](CCN2C(=O)c3ccccc3C2=O)C(=O)NO)CCN(Cc2ccccc2)C1=O (relative stereo) [Example 22, α-[2-(1,3-Dihydro-1,3-dioxo-2H-isoindol-2-yl)ethyl]-N-hydroxy-3-(2-methylpropyl)-2-oxo-1-(phenylmethyl)-3-pyrrolidineacetamide] | 1960 nM | 2070 nM | 1300 nM
2 | CC(C)C[C@@]1([C@@H](CCN2C(=O)c3ccccc3C2=O)C(=O)NO)CCN(Cc2cccc(F)c2)C1=O (relative stereo) [Example 25] | 649 nM | 1900 nM | 1280 nM
3 | CNC(=O)[C@H](Cc1ccccc1)N1CC[C@@](CC(C)C)([C@@H](CCN2C(=O)c3ccccc3C2=O)C(=O)NO)C1=O (relative stereo) [Example 29, [R,R-(R*,R*)]-α^3-[2-(1,3-Dihydro-1,3-dioxo-2H-isoindol-2-yl)ethyl]-N^3-hydroxy-N^1-methyl-3-(2-methylpropyl)-2-oxo-α^1-(phenylmethyl)-1,3-pyrrolidinediacetamide] | 570 nM | 484 nM | 981 nM
4 | CC(C)C[C@@]1(CC(=O)NO)CCN([C@@H](Cc2ccccc2)C(=O)N2C[C@@H](C)N[C@@H](C)C2)C1=O (relative stereo) [Example 56, [1(1S)-[1[R*(R*)],3α,5α]]-1-[2-(3,5-Dimethyl-1-piperazinyl)-2-oxo-1-(phenylmethyl)ethyl]-N-hydroxy-3-(2-methylpropyl)-2-oxo-3-pyrrolidineacetamide] | 2300 nM | 925 nM | 340 nM
5 | CC(C)C[C@@]1([C@@H](CCN2C(=O)c3ccc(C(F)(F)F)cc3C2=O)C(=O)NO)CCN(CCc2ccccc2)C1=O (relative stereo) [Example 65, N-Hydroxy-3-(2-methylpropyl)-2-oxo-1-(2-phenylethyl)-α-[2-(5-trifluoromethyl-1,3-dihydro-1,3-dioxo-2H-isoindol-2-yl)ethyl]-3-pyrrolidineacetamide] | 1050 nM | 510 nM | 227 nM
6 | CC(C)C[C@@]1([C@@H](CCN2C(=O)c3ccccc3C2=O)C(=O)NO)CCN(CCc2ccc(F)cc2)C1=O (relative stereo) [Example 68, 1-[2-(4-Fluorophenyl)ethyl]-α-[2-(1,3-dihydro-1,3-dioxo-2H-isoindol-2-yl)ethyl]-N-hydroxy-3-(2-methylpropyl)-2-oxo-3-pyrrolidineacetamide] | 350 nM | 1460 nM | 160 nM
7 | CC(C)C[C@@]1([C@H](CCN2C(=O)c3ccccc3C2=O)C(=O)NO)CCN(CCc2ccc(F)cc2)C1=O (relative stereo) [Example 72, 1,3-Dihydro-N-hydroxy-α-[3-(2-methylpropyl)-2-oxo-1-[2-(4-fluorophenyl)ethyl]-3-pyrrolidinyl]-1,3-dioxo-2H-isoindole-2-butanamide] | 640 nM | 39 nM | 83 nM
8 | CC(C)C[C@@]1([C@@H](CCNC(=O)c2cccc([N+](=O)[O-])c2)C(=O)NO)CCN(CCc2ccccc2)C1=O (relative stereo) [Example 76, N-Hydroxy-3-(2-methylpropyl)-α-[2-[(3-nitrobenzoyl)amino]ethyl]-2-oxo-1-(2-phenylethyl)-3-pyrrolidineacetamide] | 10800 nM | 298 nM | 3300 nM
9 | CC(C)C[C@@]1([C@@H](CCNC(=O)c2cccc(F)c2)C(=O)NO)CCN(CCc2ccc(F)cc2)C1=O (relative stereo) [Example 78, α-[2-[(3-Fluorobenzoyl)amino]ethyl]-1-[2-(4-fluorophenyl)ethyl]-N-hydroxy-3-(2-methylpropyl)-2-oxo-3-pyrrolidineacetamide] | 696 nM | 18 nM | 278 nM
10 | COc1ccc(S(=O)(=O)NCC[C@@H](C(=O)NO)[C@]2(CC(C)C)CCN(CCc3ccccc3)C2=O)cc1 (relative stereo) [Example 82, N-Hydroxy-α-[2-[[(4-methoxyphenyl)sulfonyl]amino]ethyl]-3-(2-methylpropyl)-2-oxo-1-(2-phenylethyl)-3-pyrrolidineacetamide] | 379 nM | 2400 nM | 878 nM
11 | COc1ccc(S(=O)(=O)NC[C@H](C(=O)NO)[C@]2(CC(C)C)CCN(CCc3ccccc3)C2=O)cc1 (relative stereo) [Example 90, N-Hydroxy-α-[[[(4-methoxyphenyl)sulfonyl]amino]methyl]-3-(2-methylpropyl)-2-oxo-1-(2-phenylethyl)-3-pyrrolidineacetamide] | 1770 nM | 52 nM | 624 nM
12 | CC(C)C[C@@]1([C@H](NS(=O)(=O)c2ccc(F)cc2)C(=O)NO)CCN(CCc2ccccc2)C1=O (relative stereo) [Example 93, α-[[(4-Fluorophenyl)sulfonyl]amino]-N-hydroxy-3-(2-methylpropyl)-2-oxo-1-(2-phenylethyl)-3-pyrrolidineacetamide] | 2080 nM | 98 nM | 1100 nM

Now those with a lower Ki (Stromelysin), led by results:

Row | Ki (Stromelysin) | Ki (Collagenase) | Ki (Gelatinase) | Compound
13 | 230 nM | 3.3 nM | 11 nM | CC(C)C[C@@]1(CC(=O)NO)CCN([C@H](C(=O)NCC2CC2)C2CCCCC2)C1=O (relative stereo) [Example 59, [S-(R*,R*)]-α^1 -Cyclohexyl-N^1-cyclopropylmethyl-N^3-hydroxy-3-(2-methylpropyl)-2-oxo-1,3-pyrrolidinediacetamide]
14 | 216 nM | 5000 nM | 36 nM | CC(C)C[C@@]1([C@@H](CCN2C(=O)c3ccccc3C2=O)C(=O)NO)CCN(CCCc2ccccc2)C1=O (relative stereo) [Example 67, α-[2-(1,3-Dihydro-1,3-dioxo-2H-isoindol-2-yl)ethyl]-N-hydroxy-3-(2-methylpropyl)-2-oxo-1-(3-phenylpropyl)-3-pyrrolidineacetamide]
15 | 214 nM | 1200 nM | 498 nM | CC(C)C[C@@]1([C@@H](CCN2C(=O)c3ccccc3S2(=O)=O)C(=O)NO)CCN(CCc2ccccc2)C1=O (relative stereo) [Example 69, α-[2-(o-benzoic sulfimide)ethyl]-N-hydroxy-3-(2-methylpropyl)-2-oxo-1-(2-phenylethyl)3-pyrrolidineacetamide]
16 | 295 nM | 74 nM | 264 nM | CC(C)C[C@@]1([C@@H](CCNC(=O)c2ccc(F)cc2)C(=O)NO)CCN(CCc2ccccc2)C1=O (relative stereo) [Example 75, α-[2-[(4-Fluorobenzoyl)amino]ethyl]-N-hydroxy-3-(2-methylpropyl)-2-oxo-1-(2-phenylethyl)-3-pyrrolidineacetamide]
17 | 38 nM | 339 nM | 1.77 nM | CC(C)C[C@@]1([C@@H](CCNC(=O)c2ccc(-c3ccccc3)cc2)C(=O)NO)CCN(CCc2ccccc2)C1=O (relative stereo) [Example 79, α-[2-[(4-Biphenylcarbonyl)amino]ethyl]-N-hydroxy-3-(2-methylpropyl)-2-oxo-1-(2-phenylethyl)-3-pyrrolidineacetamide]
18 | 107 nM | 17000 nM | 580 nM | CC(C)C[C@@]1([C@@H](CCNS(=O)(=O)c2ccccc2)C(=O)NO)CCN(CCc2ccccc2)C1=O (relative stereo) [Example 83, N-Hydroxy-3-(2-methylpropyl)-2-oxo-1-(2-phenylethyl)-α-[2-[(phenylsulfonyl)amino]ethyl]-3-pyrrolidineacetamide]
19 | 102 nM | 647 nM | 46 nM | CC(C)C[C@@]1([C@@H](CCN2Cc3ccccc3C2=O)C(=O)NO)CCN(CCc2ccccc2)C1=O (relative stereo) [Example 86, 1,3-Dihydro-N-hydroxy-α-[8-(2-methylpropyl)-2-oxo-1-(2-phenylethyl)-3-pyrrolidinyl]-1-oxo-2H-isoindole-2-butanamide]
20 | 309 nM | 370 nM | 273 nM | CC(C)C[C@@]1([C@@H](NS(=O)(=O)c2ccc(F)cc2)C(=O)NO)CCN(CCc2ccccc2)C1=O (relative stereo) [Example 92, α-[[(4-Fluorophenyl)sulfonyl]amino]-N-hydroxy-3-(2-methylpropyl)-2-oxo-1-(2-phenylethyl)-3-pyrrolidineacetamide]
